Molecules are shown by their SMILES.

Results on one compound are retold here after ChEMBL document CHEMBL1132015, “Selective inactivation of protein tyrosine phosphatase PTP1B by sulfone analogue of naphthoquinone” (Bioorg Med Chem Lett, 1999).

A short description of this assay: Inhibitory constant was determined against Protein tyrosine phosphatase (PTP) using the Kitz and Wilson method.

`O=C1C(CCl)=CS(=O)(=O)c2ccccc21` gave a Ki of 3.5 µM.
